The values that follow come from patent US20130059855A1, “CRYSTAL OF DI(ARYLAMINO)ARYL COMPOUND” (ASTELLAS PHARMA INC., priority 2010, published 2013).

The Solubility is the concentration that dissolves in the medium under given conditions. Low values mean a poorly soluble substance, high ones a readily soluble substance.

Series [1] is described as follows: Long term stability test (storage stability). The format is physicochemical. Conditions: powder X-ray diffraction, DSC, HPLC. The protocol: A04-type crystal samples were separately stored for 3 months under (1) 40° C./75% R.H., (2) 60° C./uncontrolled humidity, and (3) 25° C./uncontrolled humidity/D65 lamp (1000 lux) illumination (2 months under condition (3)), and the change in the crystal form of the samples before and after storage was measured by powder X-ray diffraction and DSC analysis and the change in the purity of the same was confirmed by HPLC measurement (using HPLC Condition 1 or HPLC Condition 2 shown below as the measurement conditions).

The nature of series [2]: Hygroscopicity Test A. The format is physicochemical. As to conditions: relative humidity of 93% (KNO3 saturated aqueous solution), 25° C., 7 days. The protocol: About 0.5 g of A04-type crystal was weighed into an (open) weighing bottle with a known mass to obtain a precise mass, then the weighing bottle was placed in a desiccator adjusted to a relative humidity of 93% by KNO3 saturated aqueous solution and stored at 25° C. for 7 days before measuring the change in mass.

The nature of series [3]: Hygroscopicity Test B (water absorption/dehydration behavior). In kind it is physicochemical. As to conditions: 25° C., humidity range of 5-95% R.H. The protocol: The water absorption/dehydration behavior of A04-type crystal was assessed using water balance measuring apparatus SGA-X100 (VTI) under the following conditions. Temperature: 25° C., measurement range: 5-95% R.H., measurement interval: 5%.

Series [4] can be described thus: Solubility in 50% acetone aqueous solution. In kind it is physicochemical. Here is the method:
(§1) The solubility of A02-type crystal, A03-type crystal and A04-type crystal was measured for 50% acetone aqueous solution. The solubility is lowest for A04-type crystal at all temperatures.

A short description of series [5]: Assessment of filterability (constant pressure filtration test, Ruth plot). As to conditions: for Filtration Constant B / Cake Average Specific Resistance αm: crystallization slurry, applied pressure 100 kPa; for Filtration Constant B: from inclination of Ruth plot; for Cake Average Specific Resistance αm: constant pressure filtration. The format is physicochemical. The text has this: Slurries of A02-type crystal prepared by a method similar to that of the Variation of Reference Example 2 and A04-type crystal prepared by a method similar to that of Example 2 were used to perform constant pressure filteration test, and the cake-average filteration specific resistance αm was obtained by constant pressure filteration formula of Ruth shown in formula (1) to assess filterability. Note that the slurry used in the present test is the crystallization slurry immediately before the crystals are collected by filtration in the preparation of the crystals.
The calculation of cake average specific resistance αm [m/kg] was performed by plotting (Ruth plot) μ [m^3/m^2] and Δθ/Δν [sec/m], obtaining the filtration constant B from the inclination of the obtained line, and inserting the parameters shown in the filtration condition row of Table 1 to formula (2).

Series [6] can be described thus: Assessment of the stability level (solubility, transformation, DSC). The format is physicochemical. Conditions: all temperature range; A01- to A05-type crystals compared. The protocol:
as §1
(§2) A05-type crystal was subjected to slurry agitation under room temperature and its solvent-mediated transformation was studied.
The schematic diagram showing the interrelation of the stability levels of the crystals based on the above result is presented as FIG. 4.

A short description of series [7]: Study of solvent-mediated transformation. Conditions: slurry agitation in methyl ethyl ketone under room temperature. In kind it is physicochemical.
Text: as §2

In series [8] the test system is EML4-ALK fusion protein. As to conditions: reported in Patent Document 1 (WO 2009/008371); cited from earlier work.
In series [9] the test system is mutant EGFR protein. Conditions: reported in Patent Document 1 (WO 2009/008371); cited from earlier work.

Values after ≈ are worked out from the molar mass of the structure shown.

As for `COc1cc(N2CCC(N3CCN(C)CC3)CC2)ccc1Nc1ncnc(Nc2ccccc2S(=O)(=O)C(C)C)n1` [A04-type crystal, N-{2-methoxy-4-[4-(4-methylpiperazin-1-yl)piperidin-1-yl]phenyl}-N′-[2-(propane-2-sulfonyl)phenyl]-1,3,5-triazine-2,4-diamine], the “change in the crystal form or the purity after storage” value in series [1] (25° C./uncontrolled humidity/D65 lamp (1000 lux) illumination, 2 months) was “no significant change”; in [1] (40° C./75% R.H., 3 months), “no significant change”; in [1] (60° C./uncontrolled humidity, 3 months), “no significant change”. Moreover, the “change in mass (hygroscopicity)” value in series [2] was “no significant change in mass”. Moreover, the “weight change through water absorption and dehydration” value in series [3] was “lower than 0.1%”. Also, the Solubility in series [4] (25° C.) worked out at 4.5 g/L (≈ 7.75 mM); in series [4] (40° C.) it was 8.0 g/L (≈ 13.8 mM); in series [4] (55° C.), 13.0 g/L (≈ 22.4 mM). The “Filtration Constant B” value in series [5] worked out at 2201.7. Besides, the “Cake Average Specific Resistance αm” value in series [5] is listed as 8.43×10^8 m/kg. The “thermodynamic stability level among crystal forms of Compound A” value in [6] is given as “most stable crystal”.

For the molecule `COc1cc(N2CCC(N3CCN(C)CC3)CC2)ccc1Nc1ncnc(Nc2ccccc2S(=O)(=O)C(C)C)n1` [A02-type crystal, N-{2-methoxy-4-[4-(4-methylpiperazin-1-yl)piperidin-1-yl]phenyl}-N′-[2-(propane-2-sulfonyl)phenyl]-1,3,5-triazine-2,4-diamine], the Solubility in series [4] (25° C.) is listed as 13.6 g/L (≈ 23.4 mM); in series [4] (40° C.), 17.7 g/L (≈ 30.5 mM); in series [4] (55° C.), 30.8 g/L (≈ 53 mM). In addition, the “Filtration Constant B” value in series [5] was 81406. Besides, the “Cake Average Specific Resistance αm” value in [5] was 1.31×10^11 m/kg. Moreover, in series [5] (ratio of A02-type crystal to A04-type crystal, filtration time proportional), the “cake average specific resistance relative to A04-type crystal” value is on record as “about 155 times”.

As to `COc1cc(N2CCC(N3CCN(C)CC3)CC2)ccc1Nc1ncnc(Nc2ccccc2S(=O)(=O)C(C)C)n1` [A05-type crystal, N-{2-methoxy-4-[4-(4-methylpiperazin-1-yl)piperidin-1-yl]phenyl}-N′-[2-(propane-2-sulfonyl)phenyl]-1,3,5-triazine-2,4-diamine], in [7], the solvent-mediated transformation entry was “transformed to A04-type crystal after 1 minute of agitation”.

Consider `COc1cc(N2CCC(N3CCN(C)CC3)CC2)ccc1Nc1ncnc(Nc2ccccc2S(=O)(=O)C(C)C)n1` [Compound A, N-{2-methoxy-4-[4-(4-methylpiperazin-1-yl)piperidin-1-yl]phenyl}-N′-[2-(propane-2-sulfonyl)phenyl]-1,3,5-triazine-2,4-diamine], for which the “inhibitory activity against the kinase activity of EML4-ALK fusion protein” value in series [8] is “good inhibitory activity”. In addition, the “inhibitory activity against the kinase activity of mutant EGFR protein” value in [9] is on record as “good inhibitory activity”.

As for `COc1cc(N2CCC(N3CCN(C)CC3)CC2)ccc1Nc1ncnc(Nc2ccccc2S(=O)(=O)C(C)C)n1` [A03-type crystal, N-{2-methoxy-4-[4-(4-methylpiperazin-1-yl)piperidin-1-yl]phenyl}-N′-[2-(propane-2-sulfonyl)phenyl]-1,3,5-triazine-2,4-diamine], the Solubility in series [4] (25° C.) is given as 5.3 g/L (≈ 9.13 mM); in series [4] (40° C.), 8.5 g/L (≈ 14.6 mM); in series [4] (55° C.) it was 16.1 g/L (≈ 27.7 mM).
